Measurements: US9586994B2, “CD44V6-derived peptides for treating breast cancer” (KARLSRUHER INSTITUT FÜR TECHNOLOGIE, priority 2012, dated 2017)

What was measured:
CD44v6 [1] = assay: HGF-induced activation of Met and ERK in L3.6pl cells (Western blot); type: cell-based, human; conditions: peptide before induction with 10 ng/ml HGF
Method in brief: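 L3.6pl human pancreatic carcinoma cells serum-starved 24 h, pretreated 10 min at 37° C with CD44v6 or control peptide (100 ng/mL), then stimulated with HGF (10 ng/mL) 5 min. Phospho-Met and phospho-ERK detected by western blot with total Met/ERK reprobe; bands quantified densitometrically.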

CD44v6 [2] = assay: HGF-induced activation of Met and Erk in HT29 cells (Western blot); type: cell-based, human
Description: FIG. 28: A: Activation of Met and signal transduction induced by HGF depends on CD44v6 in L3.6pl cells. L3.6pl cells were treated with the human v6 peptide (human v6 14mer) or the rat v6 peptide as control prior to induction with 10 ng/ml HGF. Activation of Met and ERK was determined in western blot. The numbers refer to the fold induction. The experiment was repeated at least 5 times. B: Activation of c-Met and signal transduction induced by HGF depends on CD44v6 HeLa cells. Starved HeLa cells respectively HT29 cells were incubated with the v6 peptide (human v6 14mer) or a control peptide for 10 minutes at 37° C. and then induced with 25 ng/ml of HGF for the indicated time points. Cells were then either lysed and the lysates were subjected to Western Blot analysis for phospho-Met and Met. C: Activation of c-Met and signal transduction induced by HGF depends on CD44v6 in HT29 cells. HGF-induced c-Met and Erk phosphorylation in HT29 was determined as described above using phospho-specific antibodies. […]
The contribution of CD44v6 to Met signaling in the human epithelial pancreatic cancer cells L3.6pl (derived from Colo 357), the cervix carcinoma cells HeLa and the colon cancer cells HT29 were analysed using the CD44v6 peptide (v6 14mer; v6 5mer tested as well, data not shown).

L3.6pl cells = assay: Human VEGF in cell culture supernatant of L3.6pl cells (Quantikine immunoassay); type: cell-based; conditions: peptide 200 ng/ml in the culture medium, 5 days
Description: Determination of human HGF and VEGF levels in cell culture medium of L3.6pl cells were performed using the Quantikine Human HGF Immunoassay and Quantikine Human VEGF Immunoassay from Roche (Mannheim, GER) and R&D Systems (Wiesbaden, Germany) For this purpose 3×10^6 cells were cultured for 5 days in a 15 cm plate in the presence of the respective peptides as indicated. The supernatant by centrifugation (20 ml) was centrifuged (1200 rpm) and the assay was performed according to manufacturer's instructions.

KEQWFGNRWHEGYR [SEQ ID NO: 6, human CD44v6 14mer peptide]
HGF-induced phosphorylation/activation of ERK (CD44v6 [1]): inhibited | HGF-induced phosphorylation/activation of Met (CD44v6 [1]): inhibited | HGF-induced phosphorylation/activation of ERK (CD44v6 [1]; listed as CD44v6 peptide): able to prevent activation | HGF-induced phosphorylation/activation of Met (CD44v6 [1]; listed as CD44v6 peptide): able to prevent activation | HGF-induced activation of Met (CD44v6 [2]; HT29, starved, peptide 10 min 37° C., HGF 25 ng/ml): able to prevent activation | HGF-induced activation of downstream target Erk (CD44v6 [2]; HT29, peptide before induction with HGF): able to prevent activation | hVEGF secretion by L3.6pl cells (L3.6pl cells): can be blocked
